The source of these data is patent publication US20260151383A1, “HETEROCYCLIC COMPOUNDS AND USES THEREOF” (KayoThera Inc., priority 2022, published 2026).

Each structure is given as a SMILES string. Some results are limits rather than exact numbers.

Type in all cases: biochemical
Common to all, as to conditions: recombinant enzyme, 20° C., activity level classes

One assay concerns the target T1, mALDH1a3 (Mus musculus, UniProt Q9JHW9).
T1 construct: made in house; host or cells: E. coli BL21-DE3
T1 sequence (Q9JHW9 1-512): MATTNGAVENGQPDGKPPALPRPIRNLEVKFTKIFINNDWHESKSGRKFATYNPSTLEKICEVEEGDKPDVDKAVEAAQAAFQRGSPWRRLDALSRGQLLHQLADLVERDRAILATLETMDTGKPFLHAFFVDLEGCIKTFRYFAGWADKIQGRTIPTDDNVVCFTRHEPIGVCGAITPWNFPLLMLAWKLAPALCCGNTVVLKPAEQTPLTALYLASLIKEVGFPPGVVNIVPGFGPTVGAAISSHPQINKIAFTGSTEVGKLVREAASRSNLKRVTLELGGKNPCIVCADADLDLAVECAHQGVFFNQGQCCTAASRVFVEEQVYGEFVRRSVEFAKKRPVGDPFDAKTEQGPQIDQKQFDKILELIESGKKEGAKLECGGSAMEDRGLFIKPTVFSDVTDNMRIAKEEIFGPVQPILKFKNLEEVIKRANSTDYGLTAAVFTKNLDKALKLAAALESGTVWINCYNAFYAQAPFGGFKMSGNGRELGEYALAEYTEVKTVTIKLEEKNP
Briefly: Aldh1a3 enzyme inhibition assay (resorufin fluorescence), mouse enzyme. An excerpt: Recombinant enzyme and inhibitor added immediately before assay. Reaction rate measured by resorufin fluorescence.

The next assay addresses T2, hALDH1a3 (Homo sapiens, UniProt P47895).
T2 construct: made in house; host or cells: E. coli BL21-DE3
T2 sequence (P47895 1-512): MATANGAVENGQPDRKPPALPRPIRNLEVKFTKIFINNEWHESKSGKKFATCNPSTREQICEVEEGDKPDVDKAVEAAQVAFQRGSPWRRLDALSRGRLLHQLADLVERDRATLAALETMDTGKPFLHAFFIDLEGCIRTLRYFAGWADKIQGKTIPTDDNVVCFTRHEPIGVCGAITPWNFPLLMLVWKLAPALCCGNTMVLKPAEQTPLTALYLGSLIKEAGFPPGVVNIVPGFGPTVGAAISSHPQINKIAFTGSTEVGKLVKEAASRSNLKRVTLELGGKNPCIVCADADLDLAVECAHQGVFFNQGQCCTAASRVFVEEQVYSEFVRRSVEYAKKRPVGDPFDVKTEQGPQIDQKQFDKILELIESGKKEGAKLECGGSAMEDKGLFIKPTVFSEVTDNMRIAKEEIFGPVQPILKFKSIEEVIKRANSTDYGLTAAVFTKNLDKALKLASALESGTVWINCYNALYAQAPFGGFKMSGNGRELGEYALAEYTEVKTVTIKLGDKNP
Briefly: Aldh1a3 enzyme inhibition assay (resorufin fluorescence), human enzyme.

The target in a further assay is T3, hALDH1a2 (Homo sapiens, UniProt O94788).
T3 construct: made in house; host or cells: E. coli BL21-DE3
T3 sequence (O94788 1-518): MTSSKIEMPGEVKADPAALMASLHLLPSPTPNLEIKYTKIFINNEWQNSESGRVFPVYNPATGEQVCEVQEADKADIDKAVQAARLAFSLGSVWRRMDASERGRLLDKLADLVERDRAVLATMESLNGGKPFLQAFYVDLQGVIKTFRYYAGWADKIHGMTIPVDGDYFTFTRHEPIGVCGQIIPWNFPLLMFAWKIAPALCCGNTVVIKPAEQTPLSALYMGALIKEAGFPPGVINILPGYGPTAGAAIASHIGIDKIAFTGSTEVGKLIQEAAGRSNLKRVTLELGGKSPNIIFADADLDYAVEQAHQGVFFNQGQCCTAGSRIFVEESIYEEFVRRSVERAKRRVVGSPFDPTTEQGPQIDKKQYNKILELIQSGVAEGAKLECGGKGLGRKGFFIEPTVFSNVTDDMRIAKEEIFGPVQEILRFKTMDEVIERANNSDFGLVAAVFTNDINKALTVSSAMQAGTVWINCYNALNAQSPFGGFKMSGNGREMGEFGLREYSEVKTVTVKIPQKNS
Put plainly: Aldh1a2 enzyme inhibition assay (resorufin fluorescence), human enzyme. The source says: (§1) Recombinant enzyme and inhibitor added immediately before assay. Reaction rate measured by resorufln fluorescence.

The target in the next assay is T4, mALDH1a2 (Mus musculus, UniProt Q62148).
T4 construct: made in house; host or cells: E. coli BL21-DE3
T4 sequence (Q62148 1-518): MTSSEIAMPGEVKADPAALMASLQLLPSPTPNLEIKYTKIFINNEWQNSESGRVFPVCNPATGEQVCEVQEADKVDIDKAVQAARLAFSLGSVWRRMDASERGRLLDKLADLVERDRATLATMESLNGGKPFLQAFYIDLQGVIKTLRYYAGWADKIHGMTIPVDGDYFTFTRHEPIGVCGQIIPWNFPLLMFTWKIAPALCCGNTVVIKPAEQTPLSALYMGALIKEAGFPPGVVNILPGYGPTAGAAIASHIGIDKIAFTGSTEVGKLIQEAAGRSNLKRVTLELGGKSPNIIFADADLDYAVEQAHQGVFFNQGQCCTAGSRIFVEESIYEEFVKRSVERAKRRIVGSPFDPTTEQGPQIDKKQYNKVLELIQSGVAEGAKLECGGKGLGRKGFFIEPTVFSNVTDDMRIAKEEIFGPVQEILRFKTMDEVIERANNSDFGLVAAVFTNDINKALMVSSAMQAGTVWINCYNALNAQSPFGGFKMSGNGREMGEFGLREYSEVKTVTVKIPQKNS
Put plainly: Aldh1a2 enzyme inhibition assay (resorufin fluorescence), mouse enzyme.
Description: as §1

Consider `O=C1CCc2cc(NC(=O)c3ccncc3-c3ccccc3)cc(Cl)c2N1` [Compound 20], for which the IC50 at mALDH1a3 was 1000 to 5000 nM; on hALDH1a3, 1000 to 5000 nM; at hALDH1a2 it was less than 100 nM; on mALDH1a2, 100 to 250 nM.
`O=C1CCc2cc(NC(=O)c3ccncc3-c3ccccc3)ccc2N1` [Compound 21]: on mALDH1a3, the “mAldh1a3 IC50” value is “No activity”. In addition, the concentration for half-maximal inhibition (IC50) is greater than 5000 nM on hALDH1a3, 1000 to 5000 nM on hALDH1a2 and 1000 to 5000 nM on mALDH1a2.
Turning to `O=C1CCc2cc(NC(=O)c3ccccc3-c3cccc(F)c3)ccc2N1` [Compound 22], the “mAldh1a3 IC50” value on mALDH1a3 is “No activity”. Also, the concentration for half-maximal inhibition (IC50) at hALDH1a3, at hALDH1a2 and at mALDH1a2 was greater than 5000 nM throughout.
Regarding `Cc1cc(NC(=O)c2ccccc2-c2cccc(F)c2)cc2c1NC(=O)CC2` [Compound 23], the IC50 on mALDH1a3 was greater than 5000 nM; at hALDH1a3, greater than 5000 nM; at hALDH1a2, 1000 to 5000 nM; at mALDH1a2 it was 1000 to 5000 nM.
For `O=C1CCc2cc(NC(=O)c3ccccc3-c3cccc(F)c3)cc(Cl)c2N1` [Compound 24], the IC50 at mALDH1a3 is greater than 5000 nM; on hALDH1a3, 1000 to 5000 nM; at hALDH1a2, 100 to 250 nM; on mALDH1a2 it was 250 to 1000 nM.
For the compound `O=C1CCc2cc(NC(=O)c3ccncc3-c3ccccc3F)ccc2N1` [Compound 25], the “mAldh1a3 IC50” value at mALDH1a3 is reported as “No activity”. Besides, the half-maximal inhibitory concentration (IC50) is greater than 5000 nM at hALDH1a3, 1000 to 5000 nM at hALDH1a2 and 1000 to 5000 nM at mALDH1a2.
Take `O=C1CCc2cc(NC(=O)c3ccncc3-c3ccccc3F)cc(Cl)c2N1` [Compound 26]: the “mAldh1a3 IC50” value at mALDH1a3 is recorded as “No activity”. Besides, the values for the IC50 on hALDH1a3, at hALDH1a2 and at mALDH1a2 were 1000 to 5000 nM, 100 to 250 nM and 100 to 250 nM, respectively.
Turning to `Cc1cc(NC(=O)c2ccncc2CC2(C)CC2)cc2c1NC(=O)CC2` [Compound 27], the IC50 on mALDH1a3 was 250 to 1000 nM; at hALDH1a3, less than 100 nM; on hALDH1a2, 100 to 250 nM; on mALDH1a2, 100 to 250 nM.
Turning to `Cc1cc(NC(=O)c2ccncc2CC(F)(F)F)cc2c1NC(=O)CS2(=O)=O` [Compound 28], the IC50 at mALDH1a3 is 1000 to 5000 nM; on hALDH1a3, greater than 5000 nM; at hALDH1a2, greater than 5000 nM; on mALDH1a2 it was greater than 5000 nM.
As for `Cc1cc(NC(=O)c2scnc2CC(F)(F)F)cc2c1NC(=O)CC2` [Compound 31], the concentration for half-maximal inhibition (IC50) is less than 100 nM on mALDH1a3, 100 to 250 nM on hALDH1a3, 250 to 1000 nM on hALDH1a2 and 250 to 1000 nM at mALDH1a2.
Take `CCc1ncsc1C(=O)Nc1cc(C)c2c(c1)CCC(=O)N2` [Compound 32]: the IC50 at mALDH1a3 is less than 100 nM; on hALDH1a3, 100 to 250 nM; on hALDH1a2, 250 to 1000 nM; on mALDH1a2 it was 250 to 1000 nM.
Take `Cc1cc(NC(=O)c2scnc2CC(F)(F)F)cc2c1NC(=O)C1CC21` (centres unmarked) [Compound 33]: the IC50 on mALDH1a3 is less than 100 nM; at hALDH1a3, 100 to 250 nM; on hALDH1a2, less than 100 nM; at mALDH1a2, less than 100 nM.
As to `CCc1ncsc1C(=O)Nc1cc(C)c2c(c1)C1CC1C(=O)N2` (centres unmarked) [Compound 34], the IC50 at mALDH1a3, on hALDH1a3, at hALDH1a2 and at mALDH1a2 was less than 100 nM each time.
Turning to `O=C1CCc2cc(NC(=O)c3scnc3CC(F)(F)F)cc(Cl)c2N1` [Compound 35], the IC50 was less than 100 nM at mALDH1a3, 100 to 250 nM on hALDH1a3, 250 to 1000 nM at hALDH1a2 and 250 to 1000 nM at mALDH1a2.

By IC50 is commonly meant the midpoint of a concentration-inhibition curve.
